In patent US10772856B2, “Compositions and methods of use of beta-hydroxy-beta-methylbutyrate (HMB) for decreasing fat mass” (Metabolic Technologies, Inc., priority 2015, dated 2020):

How the values were obtained:
skeletal muscle = conditions: acute ingestion of 2.4 grams; cited from earlier work
[1] = after administration; cited from earlier work
3T3-F442A adipocytes = assay: Lipolysis (glycerol release) in 3T3-F442A adipocytes; type: cell-based, Murine; conditions: 1 hour
Protocol: Methods. Murine 3T3-F442A preadipocytes were grown until confluence. After confluence, 3T3-F442A cells were allowed to differentiate into adipocytes and become filled with triglycerides. Lipolysis was assessed as glycerol release from 3T3-F442A adipocytes in well plates. Adipocyte monolayers were incubated with Krebs-Ringer buffer containing Hepes (KRH), supplemented with 2% fatty acid-free BSA, 5 mM glucose, ADA and PIA. In addition, cells were treated with β-hydroxy-β-methylbutyrate (HMB) at either 0 (control), 0.1, 1, or 6 mM concentrations. Cells were incubated in the absence (Basal) or in the presence of 0.1 μM isoproterenol for 1 hour. Aliquots of the incubation medium were removed and frozen until glycerol determination. Glycerol was measured by a commercial enzymatic method. Data were presented as the fold increase over control. Results. […] Lipolysis in Human Subcutaneous Adipocytes Methods. Human subcutaneous adipocytes were obtained from donors and incubated in vitro. Lipolysis was assessed as glycerol release in well plates. Adipocyte were incubated with Krebs-Ringer buffer containing Hepes (KRH), supplemented with 4% fatty acid-free BSA, 5 mM glucose, ADA and PIA. In addition, cells were treated with β-hydroxy-β-methylbutyrate (HMB) at either 0 (control), 0.1, or 1 mM concentrations in the presence of 1.0 μM isoproterenol for 2 hours. Aliquots of the incubation medium were removed and frozen until glycerol determination. Glycerol was measured by a commercial enzymatic method. Data were presented as the fold increase over control. Results. […] Effect of HMB on Gene Expression in Differentiated Adipocytes SGBS human pre-adipocytes were differentiated into adipocytes and treated with 1 mM HMB for 4 days. The human Simpson-Golabi-Behmel syndrome (SGBS) preadipocyte cell strain cells originate from an adipose tissue specimen of a patient with GSBS. Microarrays (mRNAs) were performed. […] Similarly, cytokine receptor interaction and calcium signaling pathways are also elevated as measured by mRNAs.

OP9 adipocytes = assay: Basal and isoproterenol stimulated lipolysis in differentiated OP9 adipocytes; type: cell-based
Protocol: As noted above, an increase in expression of ATGL in cells treated with HMB was observed, so the effect of HMB treatment on basal and isoproterenol stimulated lipolysis was determined directly in cultured adipocytes. The protocol of Viswanadha and Londos was used for optimization of conditions for measuring lipolysis in murine primary adipoctyes (J. Lipid Res. 2006. 47: 1859-1864) that include treatment with adenosine deaminase (ADA) to remove endogenous adenosine and then addition of ADA resistant PIA (phenylisopropyl-adenosine).
The following treatment strategies were tested: HMB doses of 0.1, 1 and 6 mM; 2 concentrations of the beta-adrenergic agonist isoproterenol 0.1 and 1 uM, and short term (immediately before lipolysis assay) vs. long term (48 h) HMB treatment (n=4 per treatment). Op9 adipocytes were used as SGBS cells take a long time (several weeks) to differentiate making them inconvenient to use.
Cells were pre-treated with varying concentrations of HMB in OP9 growth medium for 48 hrs. Following pre-treatment, cells were washed and incubated with Isoproterenol (0.1 or 1.0 uM) in lipolysis buffer: Krebs ringer bicarbonate (KRB) with 4% BSA. The medium also contained adenosine deaminase (ADA) and phenyl-isopropyl-adenosine (PIA) for 2 hrs at 37° C. ADA was added to remove endogenous adenosine and PIA, which is resistant to ADA, was used to have low standardized basal lipolysis. Following treatment, media was assayed for glycerol content and cells were lysed with RIPA buffer to determine protein concentration, *p<0.05, ** p<0.01. N=4.

[2] = after HMB is fed; cited from earlier work
[3] = test system: Human subcutaneous adipocytes; assay: Lipolysis (glycerol release) in human subcutaneous adipocytes; type: cell-based; conditions: 1.0 μM isoproterenol, 2 hours
Protocol: (§1) Methods. Murine 3T3-F442A preadipocytes were grown until confluence. After confluence, 3T3-F442A cells were allowed to differentiate into adipocytes and become filled with triglycerides. Lipolysis was assessed as glycerol release from 3T3-F442A adipocytes in well plates. Adipocyte monolayers were incubated with Krebs-Ringer buffer containing Hepes (KRH), supplemented with 2% fatty acid-free BSA, 5 mM glucose, ADA and PIA. In addition, cells were treated with β-hydroxy-β-methylbutyrate (HMB) at either 0 (control), 0.1, 1, or 6 mM concentrations. Cells were incubated in the absence (Basal) or in the presence of 0.1 μM isoproterenol for 1 hour. Aliquots of the incubation medium were removed and frozen until glycerol determination. Glycerol was measured by a commercial enzymatic method. Data were presented as the fold increase over control. Results. […] Lipolysis in Human Subcutaneous Adipocytes Methods. Human subcutaneous adipocytes were obtained from donors and incubated in vitro. Lipolysis was assessed as glycerol release in well plates. Adipocyte were incubated with Krebs-Ringer buffer containing Hepes (KRH), supplemented with 4% fatty acid-free BSA, 5 mM glucose, ADA and PIA. […] Glycerol was measured by a commercial enzymatic method. […] Similarly, cytokine receptor interaction and calcium signaling pathways are also elevated as measured by mRNAs.

[4] = test system: SGBS human pre-adipocytes differentiated into adipocytes; assay: Microarray (mRNA) pathway analysis in differentiated SGBS adipocytes; type: cell-based; conditions: 1 mM HMB for 4 days
Protocol: as §1

[5] = test system: Differentiated human adipocytes (SGBS); assay: Phosphokinase protein array of SGBS adipocytes; type: cell-based; conditions: 1 mM HMB, 4 days, vs untreated cells
Protocol: This approach was used to determine in non-biased way changes in protein phosphorylation that are known to influence activity of important signaling proteins. Differentiated human adipocytes were treated for 4 days with or without HMB (1 mM). Shown are only the significant increases above untreated cells in phosphorylation of the listed protein at the indicated phosphorylation site(s).

[6] = test system: Differentiated adipocytes; assay: Gene expression by qPCR in differentiated adipocytes; type: cell-based; conditions: 1 mM HMB, 4 days
Protocol: Differentiated adipocytes were incubated for 4 days with 1 mM of HMB. RNA was extracted and gene expression was determined by qPCR. Gene expression for ATGL, ACOX, PGC1a, ATG7 and BNIP3 were analyzed. […] ATGL is highly expressed in adipose tissue of humans and mice. ACOX1, or acyl-CoA oxidase 1 is the first enzyme involved in peroxisomal fatty acid oxidation. This occurs when the fatty acid chains are too long to be handled by the mitochondria. The high-potential electrons generated are transferred to O2→H2O2 (+heat) which in the presence of catalase→H2O and O2. PGC1α is a key regulator of energy metabolism and is found to be very important in the development of brown adipose tissue which is the high energy yielding adipose tissue. Autophagy-related protein 7 (ATG7) regulates fat mass. Knocking ATG7 down will result in abnormal non-functional adipose tissue. Elevated levels increase tissue recycling. BNIP3 is another autophagy-related protein like ATG7 that appears to be significant. The gene expression results appear in FIG. 3.

[7] = healthy young or old adults; cited from earlier work

Structure (SMILES): CC(C)(O)CC(=O)O [HMB-FA]
- protein breakdown, change (skeletal muscle): −56%
- skeletal muscle protein synthesis, change (skeletal muscle): +70%
- plasma levels of HMB compared with calcium HMB [1]: approximately double
- time to plasma levels compared with calcium HMB [1]: about one-quarter the time

Structure (SMILES): CC(C)(O)CC(=O)O [HMB, β-hydroxy-β-methylbutyric acid]
- lipolysis (glycerol release, fold increase over control) (3T3-F442A adipocytes; 0.1 μM isoproterenol stimulation, 0.1 mM HMB): increased lipolysis
- lipolysis (glycerol release, fold increase over control) (3T3-F442A adipocytes; 0.1 μM isoproterenol stimulation, 6.0 mM HMB): decreased lipolysis
- lipolysis (glycerol release, fold increase over control) (3T3-F442A adipocytes; basal, 0.1 mM HMB): increased lipolysis above control
- lipolysis (glycerol release, fold increase over control) (3T3-F442A adipocytes; basal, 1 mM HMB): increased lipolysis above control
- lipolysis (glycerol release, fold increase over control) (3T3-F442A adipocytes; basal, 6.0 mM HMB): decreased lipolysis
- enhancement of lipolysis in response to isoproterenol (OP9 adipocytes; 0.1 mM HMB 48 h pre-treatment, 0.1 uM isoproterenol): 2 fold
- increase of lipolysis over no HMB (OP9 adipocytes; 1 mM HMB 48 h pre-treatment, 0.1 uM isoproterenol): 4 fold
- enhancement of lipolysis response to isoproterenol (OP9 adipocytes; 6 mM HMB 48 h pre-treatment, 0.1 uM isoproterenol): 3 fold
- increase of basal lipolysis (OP9 adipocytes; HMB pretreatment, ADA followed by PIA, no isoproterenol): about 2 fold
- enhancement of isoproterenol-stimulated lipolysis (glycerol) (OP9 adipocytes; pre-treatment with HMB for 48 h, all HMB doses): 2-4 fold
- loss of HMB to urine [2]: 20-50%
- lipolysis (glycerol release, fold increase over control) ([3]; 0.1 mM HMB): increased lipolysis above that of control
- lipolysis (glycerol release, fold increase over control) ([3]; 1 mM HMB): increased lipolysis above that of control
- Effect on pathway: IL6 signaling (mRNA microarray) [4]: 2.53 fold
- Fold Change with HMB, phosphorylation of CREB S133 [5]: 1.233 Fold
- Fold Change with HMB, phosphorylation of FGR Y412 [5]: 1.262 Fold
- Fold Change with HMB, phosphorylation of Fyn Y420 [5]: 1.400 Fold
- Fold Change with HMB, phosphorylation of GSK-3a/b S21/S9 [5]: 1.255 Fold
- Fold Change with HMB, phosphorylation of Lyn Y397 [5]: 1.335 Fold
- Fold Change with HMB, phosphorylation of P53 S46 [5]: 0.834 Fold
- Fold Change with HMB, phosphorylation of RSK1/2/3 S380/S386/S377 [5]: 0.732 Fold
- Fold Change with HMB, phosphorylation of STAT5a/b Y694/Y699 [5]: 0.804 Fold
- Fold Change with HMB, phosphorylation of Yes Y426 [5]: 1.224 Fold
- Fold Change with HMB, phosphorylation of p53 S15 [5]: 0.621 Fold
- change in AKT1/2/3 at Threonine 308 [5]: no change
- expression of ATGL [6]: increase
- side effects [7]: no side effects

Structure (SMILES): CC(C)NCC(O)c1ccc(O)c(O)c1 (centres unmarked) [isoproterenol, reference compound]
- maximal lipolysis (OP9 adipocytes; higher concentrations of isoproterenol (1.0 vs 0.1 uM)): reduced maximal lipolysis
